{"source": "paper PMC12880750", "about": "“Mechanistic insights and in vivo HIV suppression by the BRD4-targeting small molecule ZL0580” (PLOS Pathogens, 2026)", "key": {"[1]": {"tested_on": "HIV-1 JR-CSF", "test": "HIV suppression in HIV-infected humanized mice (plasma viral load)", "assay_type": "in vivo, CD34+ Hu-NSG mice (Hu-mice)", "method": "Next, at week 0, all12 Hu-mice were intravenously inoculated with a single dose of HIV-1 JR-CSF (equivalent to 10 ng HIV p24 antigen per animal) (Fig 6A). Systemic HIV infection was confirmed in 11 out of the 12 mice at weeks 2 and 3 after HIV inoculation, based on the detection of plasma viral RNAs by a single-step RT-qPCR (Fig 6B-6C). Systemic HIV infection in the Hu-mice was also confirmed by ELISA quantification of plasma HIV p24 antigens at weeks 2 and 3 after HIV inoculation (Fig F in S1 Text). The 11 Hu-mice with successful HIV infection were then randomized into four treatment groups at week 3: empty vehicle control (EV) (n = 2), ART (n = 3), ZL0580 (n = 3), and ART + ZL0580 (n = 3). Drug formulations included: ART (Raltegravir 1.2 mg/mouse, Emtricitabine 3.2 mg/mouse, Tenofovir 3.2 mg/mouse), ZL0580 (3.8 mg/mouse), and a combination of both ART + ZL0580 (same concentration of individual compounds). All drugs were formulated in the buffer consisting of 10% DMSO, 10% Solutol HS 15, and 80% HP-β-CD (20%, w/v). The empty vehicle (EV) group received only the formulation buffer. Treatment regimens were initiated at week 3 and administered daily by intraperitoneal injection (Fig 6A). Plasma viral loads were closely monitored during the treatments.\nAll humanized mice used in this study weighed approximately 20 grams, and drug dosages were calculated accordingly. The following compounds were administered to mice daily: Raltegravir (Ral) at 60mg/kg (1.2 mg/mouse), Emtricitabine (Emt) at 160mg/kg (3.2 mg/mouse), Tenofovir (Ten) at 160mg/kg (3.2 mg/mouse), and ZL0580 at […] (3.8 mg/mouse). ART drugs were purchased from MedChemExpress. ZL0580 was synthesized in-house as previously reported. All compounds were dissolved in a formulation vehicle composed of 10% DMSO, 10% Solutol HS 15, and 80% hydroxypropyl-β-cyclodextrin (HP-β-CD, 20% w/v). Compounds were administered via intraperitoneal injection daily.\nMice were 16-week-old at the initiation of the experiments. All mice received human CD34 + stem cells of a single donor and human immune cell reconstitution was confirmed for all mice. A total of 12 Hu-mice were initially included in the study with each tagged and assigned with a unique ID. At week 0, all Hu-mice were intravenously (IV) infected with HIV-1 JR-CSF at a single dose of 10ng HIV p24 equivalent virus per animal. Blood/plasma viral loads were monitored and quantified weekly by a single-step RT-qPCR until systemic HIV infection was established. […] At week 3, the remaining 11 Hu-mice were randomized into four groups for subsequent treatments: Empty Vehicle (EV) (n = 2), ART (n = 3), ZL0580 (n = 3), and ART + ZL0580 (n = 3). The control mice received a mixture of DMSO, Solutol HS 15, and hydroxypropyl-β-cyclodextrin (HP-β-CD, 20% w/v), which was considered the empty vehicle control (EV). ART and ZL0580 compounds were administered to mice via intraperitoneal injection daily for four weeks (from week 3 to week 7). […] Plasma samples were collected from mice either weekly or biweekly for quantification of viral loads (RNA copies). Blood cells were also collected at weeks 7 and 13 for quantification of cell-associated HIV DNA in blood. Mouse weights were monitored after treatment.\nViral RNA was isolated from plasma samples using the QIAamp Viral RNA Mini Kit (Qiagen) according to the manufacturer’s instructions. Quantification of viral RNA was performed using the PrimeTime One-Step RT-qPCR Master Mix (IDT) on a CFX Connect Real-Time PCR System (Bio-Rad). […]"}, "[2]": {"tested_on": "HIV-1 JR-CSF", "test": "Cell-associated HIV DNA in blood cells of Hu-mice", "assay_type": "in vivo, CD34+ Hu-NSG mice (Hu-mice)", "conditions": "qPCR, per 10^7 PB cells", "description": "To assess whether ZL0580 or ART affects HIV DNA levels, we quantified cell-associated HIV DNA in the peripheral blood of Hu-mice after treatments. Blood cells collected at weeks 7, 11 and 13 were subjected to DNA extraction and quantification of HIV DNA by qPCR. […] By week 13, HIV DNA levels also remained similar across all groups (Fig 7C).\nMice were 16-week-old at the initiation of the experiments. All mice received human CD34 + stem cells of a single donor and human immune cell reconstitution was confirmed for all mice. A total of 12 Hu-mice were initially included in the study with each tagged and assigned with a unique ID. […] Blood/plasma viral loads were monitored and quantified weekly by a single-step RT-qPCR until systemic HIV infection was established. […] Plasma samples were collected from mice either weekly or biweekly for quantification of viral loads (RNA copies). Blood cells were also collected at weeks 7 and 13 for quantification of cell-associated HIV DNA in blood. Mouse weights were monitored after treatment.\nQuantification of cell-associated HIV DNA in blood cells was performed by qPCR as previously described with modifications. Blood cells were counted and subjected to DNA extraction using the Qiagen QIAamp DNA Blood Mini Kit (QIAGEN). qPCR primers and probe: Forward: 5′-[…]-3′, Reverse: 5′-[…]-3′, Probe: 5’-/5HEX/[…]/ZEN/GCC […]/3IABkFQ. […]"}, "[3]": {"tested_on": "BRD4 BD1", "parameters": "method as in PMID 31329163", "conditions": "in vitro binding affinity; cited from earlier work"}}, "data": [{"smiles": "O=C(Nc1ccc(C(F)(F)F)cc1)Nc1ccc(S(=O)(=O)N2CCC[C@H]2C(=O)Nc2ccccc2)cc1", "note": "[ZL0580]", "values": [{"measurement": "Delay of viral rebound following TI compared to ART alone", "setting": "[1]; ZL0580 monotherapy", "value": "~ 2 weeks"}, {"measurement": "Plasma viral loads at week 5", "setting": "[1]; after two weeks of daily i.p. treatment, ZL0580 3.8 mg/mouse, ART Raltegravir 1.2, Emtricitabine 3.2, Tenofovir 3.2 mg/mouse", "value": "nearly undetectable levels"}, {"measurement": "Plasma viral copies at week 7 (mean ± SEM)", "setting": "[1]; end of 4 weeks daily i.p. treatment, n = 3 per group", "value": "105 ± 28", "unit": "HIV RNA copies/ml"}, {"measurement": "Area under the curve (AUC) of viral loads after TI, weeks 7 to 15, compared to EV control", "setting": "[1]; one-way ANOVA", "value": "significantly suppressed viral rebounds"}, {"measurement": "Plasma mean viral copies at week 9", "setting": "[1]; two weeks post treatment interruption (TI)", "value": "undetectable"}, {"measurement": "HIV DNA copies in peripheral blood cells at week 7, among groups incl. EV control", "setting": "[2]", "value": "no significant differences"}, {"measurement": "IC50", "setting": "[3]", "value": 163, "unit": "nM"}]}]}
